# Results from patent publication US20240018132A1, “5-HYDROXY-1,4-NAPHTHALENEDIONE FOR USE IN THE TREATMENT OF CANCER” (GODAVARI BIOREFINERIES LIMITED, priority 2020, published 2024).
# Experiments:
# MDAMB231 [1] = test: Soft agar colony-formation assay, breast cancer; format: cell-based; conditions: for anticancer activity in comparison with cisplatin, soft agar, breast cancer cell line: FIG. 51, MDAMB231; for IC50: Homo sapiens, MDA-MB-231, 168 h, Soft Agar Assay, 1 week, Alamar Blue
# Method: (§1) The Soft Agar Colony-formation Assay is an anchorage-independent growth assay in soft agar, which is one of the most stringent assays for detecting malignant transformation of cells. For this assay, malignant cells are cultured with appropriate controls in soft agar medium for 1-2 weeks. Following this incubation period, formed colonies can either be analyzed morphologically using cell stain and quantifying the number of colonies formed.
# (§2) Briefly, for Soft Agar Assay a mixture of 50 ul of 2× medium (taken appropriately as per cell line) and 50 ul of 1.2% Bacto Agar were plated on to each well of 96 well micro titer assay plate. 10 ul of cells (of specific plating efficiency pre standardized for respective cell line) were mixed with 20 ul of 2× medium and 30 ul of 0.8% of Bacto Agar and 1.6 ul of drug (of appropriate concentration) in a vial and transferred to the solidified pre layers of the assay plates. The cells were then allowed to grow and form colonies at 37° C. and 5% CO2 for 1 week. An intermittent feeding with 50 ul of appropriate 2× medium was performed after 3 days of experimental set up. 16 ul of Alamar Blue (1.5 mg/ml) was then added to all the wells to quantify the developed colonies. The plates were incubated for 24 hrs at 37° C. Absorbance was then measured at 630 nm. XY graph of log Percent viability was then plotted against log drug concentration.
# (§3) Following plating efficiencies were standardized for Soft Agar Assay: […]
# PC3 [2] = test: Soft agar colony-formation assay, prostate cancer; format: cell-based; conditions: for anticancer activity in comparison with cisplatin, soft agar, prostate cancer cell line: FIG. 52, PC3; for IC50: Homo sapiens, PC-3, 168 h, Soft Agar Assay, 1 week, Alamar Blue
# Method: as §1, §2, §3
# MDAMB231 [3] = test: In vitro antiproliferative assay (MTT assay), breast cancer cell line; format: cell-based; conditions: Homo sapiens, MDA-MB-231, 48 h, MTT assay, breast cancer MDAMB231, 48 hrs drug incubation
# Method: (§4) MTT assay is a simple and sensitive assay where, metabolic reducing activity of the cells is measured. The increase of this activity in time is taken as a parameter of cell growth. If treatment with a drug impairs this increase, the action is a consequence of growth inhibition, cell killing or both. […] All cell lines were cultured in a 37° C. incubator with a 5% CO2 environment. Compounds were dissolved in DMSO with a concentration of 0.1M (stock solution). Cells were seeded into 96-well plates at suitable plating efficiency.
# (§5) Following plating efficiencies were standardized for MTT assay:
# (§6) In the MTT procedure, the cells were plated in 96 well plates as per predetermined plating efficiency (Table1). The plates were then incubated for 24 hrs in 5% CO2 atmosphere at 37° C. Appropriate concentrations of the drugs were then added to the plate and further incubation was carried out for 48 hrs (in 5% CO2 atmosphere at 37° C.). The assay plate was then centrifuged twice at 3000 rpm for 3 mins and supernatant was then discarded. 100 ul of MTT solution (0.5 mg/ml) was then added to each well of the plate and it was further incubated for 4 hrs (in 5% CO2 atmosphere at 37° C.) Following 4 hr incubation, the plate was then centrifuged twice, and supernatant was aspirated off very carefully. 200 ul of DMSO was then added to each well to solubilize. MTT crystals and mixed well by shaking the plate. XY graph of log percent viability was then plotted against log drug concentration.
# PC3 [4] = test: In vitro antiproliferative assay (MTT assay), prostate cancer cell line; format: cell-based; conditions: Homo sapiens, PC-3, 48 h, MTT assay, prostate cancer PC3, 48 hrs drug incubation
# Method: as §4, §5, §6
# Human lymphocytes = test: Lymphocyte assay (MTT on normal cells); format: cell-based; conditions: human peripheral blood lymphocytes, MTT procedure; for IC50: Lymphocyte
# Method: Human lymphocytes were isolated from the peripheral blood. A pure population of lymphocytes was obtained based on differential centrifugation, in which diluted defibrinated blood was layered on a solution of sodium diatrizoate and polysucrose (HiSep LSM 1077) and centrifuged at low speeds for 30 mins.
# Procedure: The separation of lymphocytes from fresh defibrinated blood was performed by the procedure described below: • 1. Diluted defibrinated fresh blood was overlaid gradually on (HiSeP LSM1077) and centrifuged at low speed for 30 mins. • 2. The lymphocyte layer (the buffy coat) was carefully removed in a new collection tube. • 3. The buffy coat was given another wash, by the diluent buffer Dulbecco's phosphate buffered saline (D.P.B.S) • 4. The supernatant was discarded and the pellet was resuspended in D.P.B.S. • 5. The viability of cells was checked by Haemocytometer. • 6. Cells with purity and viability of more than 95% were taken for the experiment. • 7. Purified lymphocytes were diluted at a concentration of 0.7 million/ml with sterile D.P.B.S and MTT procedure was performed exactly as described earlier.
# PC3 [5] = test: In vitro sphere-forming assay (cancer stem cells), Prostosphere media; conditions: for viability at 0.0025 µM / viability at 0.025 µM / viability at 0.25 µM / viability at 2.5 µM / viability at 25 µM: Homo sapiens, PC-3, read-out: % Viability of spheres (PC3); for 3D sphere count of PC3: Prostosphere media, 2000 cells/well, n = 6 ± S.D
# Method: (§7) In Vitro Sphere-forming Assay: Sphere assay measures the ability of cancer stem cells (CSCs) to form spheres in specially designed serum-free medium.
# Prostosphere Media Preparation (For 100 mL):1 g methyl cellulose autoclaved with magnetic stirrer, 100 mL plain media (Prostate Epithelial Basal Medium) was added and dissolved, under magnetic stirring. After complete dissolution, Insulin-40 μL, B27-2 mL, EGF-80 μL, Penstrep-1 ml was added.
# (§8) Procedure—The cells were trypsinised and made into single-cell suspension by passing through cell strainers (100 μl and 40 μl, respectively), The cells were diluted at a concentration of 2000 cells/100 μL and suspended in either Mammosphere (for breast cell lines) or Prostosphere (for prostate cell lines). 100 μL of this suspension was added into each well of 96-well suspension plates and incubated at 37° C., 5% CO2 for 24 hrs. Appropriate concentrations of the drugs (2 μL) were added into respective wells with 100 μL of stem cell culture medium. Plates were incubated at 37° C., 50 CO2 for 72 hrs. After incubation, 2.5 μL of the respective drug concentration and 50 μL of stem cell culture medium were added into each well and the plates were further incubated at 37° C., 50% CO2 for 72 hrs. 3 μL of the respective drug concentration was added with 50 μL of stem cell culture medium again after incubation and plates were reincubated for 72 hrs at 37° C., 50 CO2. Number of primary spheres formed for each concentration were counted. The spheres were converted to 0 viability of spheres compared to untreated (Growth Control with DMSO, GCD).
# MDAMB231 [6] = test: In vitro sphere-forming assay (cancer stem cells), Mammosphere media; conditions: for viability at 0.0025 µM / viability at 0.025 µM / viability at 0.25 µM / viability at 2.5 µM / viability at 25 µM: Homo sapiens, MDA-MB-231, read-out: % Viability of spheres (MDAMB231); for 3D sphere count of MDAMB231: Mammosphere media, 2000 cells/well, n = 6 ± S.D
# Method: as §7
# Mammosphere Media Preparation (For 100 mL): 1 g methyl cellulose autoclaved with magnetic stirrer, 100 ml plain media (MEBM) was added and dissolved under magnetic stirring. After complete dissolution FGF-80 μL, EGF-40 μL, Penstrep-1 mL, Heparin-400 μL was added.
# as §8
SMILES,IC50 (MDAMB231 [1]),IC50 (PC3 [2]),IC50 (MDAMB231 [3]),IC50 (PC3 [4]),"anticancer activity in comparison with cisplatin, soft agar, breast cancer cell line (MDAMB231 [1])","anticancer activity in comparison with cisplatin, soft agar, prostate cancer cell line (PC3 [2])",viability at 0.0025 µM (PC3 [5]),viability at 0.025 µM (PC3 [5]),viability at 0.25 µM (PC3 [5]),viability at 2.5 µM (PC3 [5]),viability at 25 µM (PC3 [5]),3D sphere count of PC3 (PC3 [5]; drug 0.0025 uM),3D sphere count of PC3 (PC3 [5]; drug 0.025 uM),3D sphere count of PC3 (PC3 [5]; drug 0.25 uM),3D sphere count of PC3 (PC3 [5]; drug 2.5 uM),3D sphere count of PC3 (PC3 [5]; drug 25 uM),viability at 0.0025 µM (MDAMB231 [6]),viability at 0.025 µM (MDAMB231 [6]),viability at 0.25 µM (MDAMB231 [6]),viability at 2.5 µM (MDAMB231 [6]),also measured
O=C1C=C(OCCCCN2CCOCC2)C(=O)c2ccccc21 [Formula 67],3.17 µM,2.21 µM,3.09 µM,4.11 µM,higher anticancer activity in comparison with cisplatin,higher anticancer activity in comparison with cisplatin,70%,64%,51%,44%,36%,61(±5),56(±3),45(±3),39(±2),32(±3),80%,69%,56%,48%,IC50 (Human lymphocytes): 5.15 µM; viability at 25 µM (MDAMB231 [6]): 37%; 3D sphere count of MDAMB231 (MDAMB231 [6]; drug 0.0025 uM): 67(±2); 3D sphere count of MDAMB231 (MDAMB231 [6]; drug 0.025 uM): 58(±3); 3D sphere count of MDAMB231 (MDAMB231 [6]; drug 0.25 uM): 47(±5); 3D sphere count of MDAMB231 (MDAMB231 [6]; drug 2.5 uM): 40(±5); 3D sphere count of MDAMB231 (MDAMB231 [6]; drug 25 uM): 31(±2)
CCN(CC)CCNC(=O)COc1cccc2c1C(=O)C=C(Nc1ccc(OC)cc1)C2=O [Formula 72],3.72 µM,0.6 µM,1.01 µM,0.743 µM,higher anticancer activity in comparison with cisplatin,higher anticancer activity in comparison with cisplatin,81%,63%,46%,36%,16%,65(±3),51(±3),37(±3),29(±2),13(±3),84%,67%,48%,33%,IC50 (Human lymphocytes): 33 µM; viability at 25 µM (MDAMB231 [6]): 19%; 3D sphere count of MDAMB231 (MDAMB231 [6]; drug 0.0025 uM): 60(±3); 3D sphere count of MDAMB231 (MDAMB231 [6]; drug 0.025 uM): 48(±3); 3D sphere count of MDAMB231 (MDAMB231 [6]; drug 0.25 uM): 34(±3); 3D sphere count of MDAMB231 (MDAMB231 [6]; drug 2.5 uM): 24(±2); 3D sphere count of MDAMB231 (MDAMB231 [6]; drug 25 uM): 14(±3)

# These reach a lower IC50 (MDAMB231 [1]). Values come first.
IC50 (MDAMB231 [1]),IC50 (PC3 [2]),IC50 (MDAMB231 [3]),IC50 (PC3 [4]),SMILES,"anticancer activity in comparison with cisplatin, soft agar, breast cancer cell line (MDAMB231 [1])","anticancer activity in comparison with cisplatin, soft agar, prostate cancer cell line (PC3 [2])",viability at 0.0025 µM (PC3 [5]),viability at 0.025 µM (PC3 [5]),viability at 0.25 µM (PC3 [5]),viability at 2.5 µM (PC3 [5]),viability at 25 µM (PC3 [5]),3D sphere count of PC3 (PC3 [5]; drug 0.0025 uM),3D sphere count of PC3 (PC3 [5]; drug 0.025 uM),3D sphere count of PC3 (PC3 [5]; drug 0.25 uM),3D sphere count of PC3 (PC3 [5]; drug 2.5 uM),3D sphere count of PC3 (PC3 [5]; drug 25 uM),viability at 0.0025 µM (MDAMB231 [6]),viability at 0.025 µM (MDAMB231 [6]),viability at 0.25 µM (MDAMB231 [6]),viability at 2.5 µM (MDAMB231 [6]),also measured
1.63 µM,2.67 µM,3.06 µM,2.73 µM,COc1ccc(NC2=CC(=O)c3c(OCCCCN4CCOCC4)cccc3C2=O)cc1OC [Formula 41],higher anticancer activity in comparison with cisplatin,higher anticancer activity in comparison with cisplatin,85%,72%,54%,46%,27%,74(±4),63(±3),47(±5),40(±4),24(±4),86%,70%,52%,34%,Activity on Lymphocytes (IC50) (Human lymphocytes): No activity; viability at 25 µM (MDAMB231 [6]): 19%; 3D sphere count of MDAMB231 (MDAMB231 [6]; drug 0.0025 uM): 66(±4); 3D sphere count of MDAMB231 (MDAMB231 [6]; drug 0.025 uM): 54(±4); 3D sphere count of MDAMB231 (MDAMB231 [6]; drug 0.25 uM): 40(±3); 3D sphere count of MDAMB231 (MDAMB231 [6]; drug 2.5 uM): 26(±3); 3D sphere count of MDAMB231 (MDAMB231 [6]; drug 25 uM): 15(±3)
2.37 µM,2.53 µM,3.18 µM,4.73 µM,O=C1C=C(OCCCCCCN2CCOCC2)C(=O)c2ccccc21 [Formula 68],higher anticancer activity in comparison with cisplatin,higher anticancer activity in comparison with cisplatin,62%,55%,41%,31%,24%,54(±4),48(±3),36(±3),27(±2),21(±2),62%,53%,47%,39%,IC50 (Human lymphocytes): 5.58 µM; viability at 25 µM (MDAMB231 [6]): 32%; 3D sphere count of MDAMB231 (MDAMB231 [6]; drug 0.0025 uM): 54(±2); 3D sphere count of MDAMB231 (MDAMB231 [6]; drug 0.025 uM): 47(±2); 3D sphere count of MDAMB231 (MDAMB231 [6]; drug 0.25 uM): 39(±3); 3D sphere count of MDAMB231 (MDAMB231 [6]; drug 2.5 uM): 33(±2); 3D sphere count of MDAMB231 (MDAMB231 [6]; drug 25 uM): 27(±2)
1.79 µM,3.31 µM,1.35 µM,3.55 µM,O=C1C(Nc2ccc3c(c2)OCO3)=CC(=O)c2c(OCC(=O)N3CCOCC3)cccc21 [Formula 71],higher anticancer activity in comparison with cisplatin,higher anticancer activity in comparison with cisplatin,95%,65%,52%,37%,20%,65(±5),53(±4),44(±4),28(±3),11(±2),79%,64%,53%,34%,IC50 (Human lymphocytes): 25.2 µM; viability at 25 µM (MDAMB231 [6]): 13%; 3D sphere count of MDAMB231 (MDAMB231 [6]; drug 0.0025 uM): 65(±5); 3D sphere count of MDAMB231 (MDAMB231 [6]; drug 0.025 uM): 53(±4); 3D sphere count of MDAMB231 (MDAMB231 [6]; drug 0.25 uM): 44(±4); 3D sphere count of MDAMB231 (MDAMB231 [6]; drug 2.5 uM): 28(±3); 3D sphere count of MDAMB231 (MDAMB231 [6]; drug 25 uM): 11(±2)
